Consider 16 compounds from patent US11020399B2, “Intermediates useful in the synthesis of compounds as modulators of protein kinases” (Rhizen Pharmaceuticals SA, priority 2011, dated 2021).

Type in all cases: biochemical
One experiment has as its target PI3kα (Homo sapiens, UniProt P42336). Kind of experiment: Fluorescent (HTRF) determination of PI3 kinase enzyme activity, PI3Kα. Particulars: 1 uM. The source says: (§1) Assay 1: Fluorescent Determination of PI3Kinase Kinase Enzyme Activity
(§2) Phosphoinositide 3 kinases (PI3K) belong to a class of lipid kinases that play a critical role in the regulation of several key cellular processes. The PI3K are capable of phosphorylating the 3-hydroxy position of phosphoinositols thereby generating second messengers involved in downstream signalling events. The homogenous time resolved fluorescence (HTRF) assay allows detection of 3,4,5-triphosphate (PIP3) formed as a result of phosphorylation of phosphotidylinositol 4,5-biphosphate (PIP2) by PI3K isoforms such as α, β, γ or δ. PI3K isoform activity for a, p, y or 8 was determined using a PI3K human HTRF™ Assay Kit (Millipore, Billerica, Mass.) with modifications. All incubations were carried out at room temperature. Briefly, 0.5 μl of 40× inhibitor (in 100% DMSO) or 100% DMSO were added to each well of a 384-well black plate (Greiner Bio-One, Monroe, N.C.) containing 14.5 μl IX reaction buffer /PIP2 (10 mM MgCl2, 5 mM DTT, 1.38 μM PIP2) mix with or without enzyme and incubated for 10 min. After the initial incubation, 5 μl/well of 400 μM ATP was added and incubated for an additional 30 minutes. Reaction was terminated by adding 5 μl/well stop solution (Millipore, Billerica, Mass.). Five microliters of detection mix (Millipore, Billerica, Mass.) were then added to each well and was incubated for 6-18 h in the dark. HRTF ratio was measured on a microplate reader (BMG Labtech., Germany) at an excitation wavelength of 337 nm and emission wavelengths of 665 and 620 nm with an integration time of 400 μsec.
(§3) Data were analyzed using Graphpad Prism (Graphpad software; San Diego Calif.) for IC50 determination. Examples 1-59 were tested at 1 uM for Pi3kα & Pi3k β and at 0.3 uM for γ and δ. Examples 60-137 were tested at 1 uM for Pi3kα & Pi3k β and at 0.1 uM for γ and δ. Percent inhibition was calculated based on the values for the blank and enzyme controls. The results are as provided in Table 2 (wherein D=0 to 25%; C=>25 to 50%; B=>50 to 75%; A=>75 to 100%; +++++=≤50 nM; ++++=>50 to ≤100 nM; +++=>100 to ≤300 nM; ++=>300 to ≤500 nM; +=>500 nM)
A general note: TR-FRET usually uses a lanthanide donor and a delayed reading to cut background.

The target of another experiment is PI3kβ (Homo sapiens, UniProt P42338). Kind of experiment: Fluorescent (HTRF) determination of PI3 kinase enzyme activity, PI3Kβ. Particulars: 1 uM.
Chain of PI3kβ (P42338 whole entry): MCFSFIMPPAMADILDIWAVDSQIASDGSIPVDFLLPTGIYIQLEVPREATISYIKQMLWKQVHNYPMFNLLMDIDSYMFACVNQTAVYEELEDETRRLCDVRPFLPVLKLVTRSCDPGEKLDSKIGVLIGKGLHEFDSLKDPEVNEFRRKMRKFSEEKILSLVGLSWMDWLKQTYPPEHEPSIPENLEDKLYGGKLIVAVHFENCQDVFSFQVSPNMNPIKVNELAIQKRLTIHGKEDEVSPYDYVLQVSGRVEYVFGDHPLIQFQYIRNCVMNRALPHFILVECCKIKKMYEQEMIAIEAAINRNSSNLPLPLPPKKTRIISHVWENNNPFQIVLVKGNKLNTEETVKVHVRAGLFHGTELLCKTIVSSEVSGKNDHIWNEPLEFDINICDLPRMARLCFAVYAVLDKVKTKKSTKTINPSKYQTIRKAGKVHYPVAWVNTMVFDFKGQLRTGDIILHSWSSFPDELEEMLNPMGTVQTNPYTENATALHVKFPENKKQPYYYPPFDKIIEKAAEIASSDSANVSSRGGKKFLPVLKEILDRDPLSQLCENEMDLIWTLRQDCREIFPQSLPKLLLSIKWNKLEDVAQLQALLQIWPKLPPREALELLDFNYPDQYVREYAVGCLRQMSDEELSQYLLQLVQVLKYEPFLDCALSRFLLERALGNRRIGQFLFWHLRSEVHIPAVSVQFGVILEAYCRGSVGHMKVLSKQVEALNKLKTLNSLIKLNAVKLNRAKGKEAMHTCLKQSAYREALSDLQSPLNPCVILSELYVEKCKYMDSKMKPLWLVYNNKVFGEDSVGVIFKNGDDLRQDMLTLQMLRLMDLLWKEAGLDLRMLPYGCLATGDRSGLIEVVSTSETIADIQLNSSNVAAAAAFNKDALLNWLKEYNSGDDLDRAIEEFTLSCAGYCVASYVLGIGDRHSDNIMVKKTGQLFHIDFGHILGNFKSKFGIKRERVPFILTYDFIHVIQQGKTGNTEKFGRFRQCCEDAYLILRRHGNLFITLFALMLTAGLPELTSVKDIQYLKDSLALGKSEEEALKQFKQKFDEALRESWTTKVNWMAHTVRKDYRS
Chain of PI3kβ (P27986 whole entry partner): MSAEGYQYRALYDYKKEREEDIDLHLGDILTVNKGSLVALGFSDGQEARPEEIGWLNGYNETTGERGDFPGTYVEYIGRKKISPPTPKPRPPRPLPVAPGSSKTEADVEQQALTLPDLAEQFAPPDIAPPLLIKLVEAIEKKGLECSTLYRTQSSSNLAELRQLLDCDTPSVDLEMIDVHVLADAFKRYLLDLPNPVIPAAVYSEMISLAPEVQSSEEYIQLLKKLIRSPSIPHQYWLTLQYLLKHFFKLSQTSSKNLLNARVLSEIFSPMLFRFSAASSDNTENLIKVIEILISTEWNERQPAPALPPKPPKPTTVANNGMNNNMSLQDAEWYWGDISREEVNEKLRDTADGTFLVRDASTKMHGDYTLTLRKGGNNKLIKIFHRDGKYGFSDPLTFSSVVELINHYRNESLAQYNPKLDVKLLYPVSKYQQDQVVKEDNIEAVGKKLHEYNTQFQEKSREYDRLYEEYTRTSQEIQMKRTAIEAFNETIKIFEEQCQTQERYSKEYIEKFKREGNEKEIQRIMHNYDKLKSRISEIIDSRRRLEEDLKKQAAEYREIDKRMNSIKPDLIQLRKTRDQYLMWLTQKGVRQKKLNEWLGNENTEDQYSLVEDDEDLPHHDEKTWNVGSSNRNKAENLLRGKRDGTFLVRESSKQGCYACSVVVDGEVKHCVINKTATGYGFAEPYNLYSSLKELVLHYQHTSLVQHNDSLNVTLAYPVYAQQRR
Description: as §1, §2, §3

For a further experiment, the target named is PI3kγ (Homo sapiens, UniProt P48736). Kind of experiment: Fluorescent (HTRF) determination of PI3 kinase enzyme activity, PI3Kγ. Particulars: for inhibition at 0.3 µM: 300 nM (Examples 1-59).
Chain of PI3kγ (P48736 whole entry): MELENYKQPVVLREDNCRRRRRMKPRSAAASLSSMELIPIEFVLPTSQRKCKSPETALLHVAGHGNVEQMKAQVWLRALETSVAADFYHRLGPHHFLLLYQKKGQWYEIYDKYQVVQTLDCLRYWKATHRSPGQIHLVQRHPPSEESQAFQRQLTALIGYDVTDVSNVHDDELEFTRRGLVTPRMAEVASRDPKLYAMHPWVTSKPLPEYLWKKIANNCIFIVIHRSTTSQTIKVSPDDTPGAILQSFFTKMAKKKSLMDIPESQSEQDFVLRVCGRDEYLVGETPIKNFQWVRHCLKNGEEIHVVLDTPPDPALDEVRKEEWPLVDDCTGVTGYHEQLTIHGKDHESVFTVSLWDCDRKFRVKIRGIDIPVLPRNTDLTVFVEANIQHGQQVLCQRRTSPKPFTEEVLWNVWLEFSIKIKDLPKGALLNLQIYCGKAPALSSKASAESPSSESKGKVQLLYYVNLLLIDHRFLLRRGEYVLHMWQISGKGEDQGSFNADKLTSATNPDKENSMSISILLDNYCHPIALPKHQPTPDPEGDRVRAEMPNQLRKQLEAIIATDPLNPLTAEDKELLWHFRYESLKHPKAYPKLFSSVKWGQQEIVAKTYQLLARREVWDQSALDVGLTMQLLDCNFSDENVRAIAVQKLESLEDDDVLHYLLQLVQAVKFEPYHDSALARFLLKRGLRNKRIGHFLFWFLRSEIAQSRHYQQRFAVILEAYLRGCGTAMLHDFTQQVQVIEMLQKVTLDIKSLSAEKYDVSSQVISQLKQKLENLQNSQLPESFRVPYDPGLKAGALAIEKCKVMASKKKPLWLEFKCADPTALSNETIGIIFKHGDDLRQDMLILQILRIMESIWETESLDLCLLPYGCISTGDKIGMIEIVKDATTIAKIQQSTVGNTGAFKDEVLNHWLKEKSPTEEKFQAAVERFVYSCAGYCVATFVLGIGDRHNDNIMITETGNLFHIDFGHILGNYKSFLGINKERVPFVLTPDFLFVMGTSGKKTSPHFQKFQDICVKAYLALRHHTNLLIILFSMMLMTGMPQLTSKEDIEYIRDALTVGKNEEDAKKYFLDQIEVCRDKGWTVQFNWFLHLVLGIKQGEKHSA
Description: as §1, §2, §3

The target of the next experiment is PI3kδ (Homo sapiens, UniProt O00329). Description: Fluorescent (HTRF) determination of PI3 kinase enzyme activity, PI3Kδ. Particulars: for inhibition at 0.3 µM: 300 nM (Examples 1-59).
Chain of PI3kδ (O00329 whole entry): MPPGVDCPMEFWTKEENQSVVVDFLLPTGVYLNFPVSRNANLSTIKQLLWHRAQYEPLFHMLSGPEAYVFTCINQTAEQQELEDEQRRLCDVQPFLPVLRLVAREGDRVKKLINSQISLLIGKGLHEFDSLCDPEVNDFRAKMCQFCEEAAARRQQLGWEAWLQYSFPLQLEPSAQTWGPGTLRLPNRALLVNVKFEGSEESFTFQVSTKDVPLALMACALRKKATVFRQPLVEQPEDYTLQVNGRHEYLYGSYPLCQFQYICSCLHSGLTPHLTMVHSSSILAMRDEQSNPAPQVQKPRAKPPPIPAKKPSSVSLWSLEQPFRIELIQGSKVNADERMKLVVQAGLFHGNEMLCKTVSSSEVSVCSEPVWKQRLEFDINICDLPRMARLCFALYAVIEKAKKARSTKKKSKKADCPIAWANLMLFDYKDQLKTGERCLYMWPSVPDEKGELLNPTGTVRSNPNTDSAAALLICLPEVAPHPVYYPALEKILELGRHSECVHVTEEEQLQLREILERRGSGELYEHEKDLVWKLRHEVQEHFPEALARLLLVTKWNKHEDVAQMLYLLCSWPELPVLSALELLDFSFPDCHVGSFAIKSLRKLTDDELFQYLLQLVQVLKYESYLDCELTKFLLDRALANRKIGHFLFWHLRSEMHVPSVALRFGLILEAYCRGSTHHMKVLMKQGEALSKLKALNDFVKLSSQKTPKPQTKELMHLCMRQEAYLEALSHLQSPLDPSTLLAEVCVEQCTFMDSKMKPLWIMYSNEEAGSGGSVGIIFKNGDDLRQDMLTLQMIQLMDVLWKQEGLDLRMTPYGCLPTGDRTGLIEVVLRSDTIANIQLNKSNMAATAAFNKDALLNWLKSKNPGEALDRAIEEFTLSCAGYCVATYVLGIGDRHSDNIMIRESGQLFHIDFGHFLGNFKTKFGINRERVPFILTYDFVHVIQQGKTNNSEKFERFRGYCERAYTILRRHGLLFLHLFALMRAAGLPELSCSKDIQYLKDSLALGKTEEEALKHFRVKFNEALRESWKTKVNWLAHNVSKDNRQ
Chain of PI3kδ (P27986 whole entry partner): as the sequence (P27986 whole entry partner) above
Description: as §1, §2, §3

Where only a bound is given, the exact number is not on record here.

As a reminder, the inhibition is the relative decrease from the control value, in per cent. A higher inhibition goes with a response far below the control. A word on the IC50: it is the concentration that gives 50% inhibition. Read a low IC50 as greater potency.

Chain of PI3kα (P42336 whole entry, canonical isoform): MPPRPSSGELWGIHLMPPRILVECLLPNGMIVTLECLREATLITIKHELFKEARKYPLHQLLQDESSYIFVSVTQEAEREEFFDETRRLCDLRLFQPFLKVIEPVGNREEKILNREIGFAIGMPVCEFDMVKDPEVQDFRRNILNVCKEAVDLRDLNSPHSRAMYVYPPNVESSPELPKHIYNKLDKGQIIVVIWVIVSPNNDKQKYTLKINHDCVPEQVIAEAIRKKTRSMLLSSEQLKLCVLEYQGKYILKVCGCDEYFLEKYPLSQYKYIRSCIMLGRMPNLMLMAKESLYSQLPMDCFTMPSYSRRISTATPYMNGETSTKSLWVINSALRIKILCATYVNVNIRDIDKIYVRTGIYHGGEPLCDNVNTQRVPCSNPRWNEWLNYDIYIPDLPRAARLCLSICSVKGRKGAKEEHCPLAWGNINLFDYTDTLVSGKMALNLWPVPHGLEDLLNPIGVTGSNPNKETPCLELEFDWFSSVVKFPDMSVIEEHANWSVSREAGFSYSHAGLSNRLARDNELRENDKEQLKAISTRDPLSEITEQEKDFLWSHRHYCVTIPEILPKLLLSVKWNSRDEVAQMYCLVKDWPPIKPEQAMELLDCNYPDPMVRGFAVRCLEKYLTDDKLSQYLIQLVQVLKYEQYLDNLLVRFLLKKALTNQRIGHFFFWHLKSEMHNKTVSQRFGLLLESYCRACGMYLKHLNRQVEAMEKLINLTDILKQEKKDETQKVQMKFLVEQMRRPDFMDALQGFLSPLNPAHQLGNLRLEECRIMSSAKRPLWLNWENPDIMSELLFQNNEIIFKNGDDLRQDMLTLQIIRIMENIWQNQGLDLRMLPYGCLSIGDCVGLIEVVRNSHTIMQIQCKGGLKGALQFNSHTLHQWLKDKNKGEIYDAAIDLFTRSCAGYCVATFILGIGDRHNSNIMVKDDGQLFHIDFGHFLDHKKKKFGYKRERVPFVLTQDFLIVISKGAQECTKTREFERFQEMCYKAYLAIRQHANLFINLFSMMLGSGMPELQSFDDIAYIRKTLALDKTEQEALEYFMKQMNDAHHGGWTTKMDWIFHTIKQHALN
Chain of PI3kα (P27986 whole entry partner, canonical isoform): as the sequence (P27986 whole entry partner) above

Take `Cc1n[nH]c2cc(-c3nn([C@H](C)c4oc5cccc(F)c5c(=O)c4-c4cccc(F)c4)c4ncnc(N)c34)ccc12` [Example 9b, (−)-2-(1-(4-amino-3-(3-methyl-1H-indazol-6-yl)-1H-pyrazolo[3,4-d]pyrimidin-1-yl)ethyl)-5-fluoro-3-(3-fluorophenyl)-4H-chromen-4-one]: the inhibition at 1 µM against PI3kα fell in the range of 0 to 25%; at PI3kβ, 25 to 50%. In addition, the IC50 on PI3kγ and against PI3kδ was 300 to 500 nM in each case.

The compound `CC(c1oc2cccc(F)c2c(=O)c1-c1cccc(F)c1)n1nc(-c2ccc(N3CCOCC3)c(F)c2)c2c(N)ncnc21` (stereo not shown) [Example 25, 2-(1-(4-amino-3-(3-fluoro-4-morpholinophenyl)-1H-pyrazolo[3,4-d]pyrimidin-1-yl)ethyl)-5-fluoro-3-(3-fluorophenyl)-4H-chromen-4-one] returned an inhibition at 1 µM against PI3kα of 0 to 25%. This compound also yielded an inhibition at 1 µM on PI3kβ of 25 to 50%. On PI3kγ, this compound showed an IC50 not above 50 nM and an inhibition at 0.3 µM of 75 to 100%.

As for `CC(c1oc2cccc(F)c2c(=O)c1-c1cccc(F)c1)n1ncc2c(N(C)C)ncnc21` (stereo not shown) [Example 28, 2-(1-(4-(dimethylamino)-1H-pyrazolo[3,4-d]pyrimidin-1-yl)ethyl)-5-fluoro-3-(3-fluorophenyl)-4H-chromen-4-one], the inhibition at 1 µM against PI3kα was in the range of 0 to 25%; against PI3kβ, 25 to 50%. Further, the inhibition at 0.3 µM against PI3kγ and at PI3kδ was 50 to 75% throughout.

With `CC(c1oc2cccc(F)c2c(=O)c1-c1cccc(F)c1)n1nc(-c2cc3ccccc3o2)c2c(N)ncnc21` (stereo not shown) [Example 14, 2-(1-(4-amino-3-(benzofuran-2-yl)-1H-pyrazolo[3,4-d]pyrimidin-1-yl)ethyl)-5-fluoro-3-(3-fluorophenyl)-4H-chromen-4-one], the inhibition at 1 µM against PI3kα was in the range of 25 to 50%; on PI3kβ it was 0 to 25%. The IC50 against PI3kγ and against PI3kδ was 50 to 100 nM throughout. Also, the inhibition at 0.3 µM against PI3kγ and against PI3kδ was 75 to 100% each time.

`CC(c1oc2cccc(F)c2c(=O)c1-c1cccc(F)c1)n1nc(-c2ccc(OC3CN(C(c4ccccc4)c4ccccc4)C3)c(F)c2)c2c(N)ncnc21` (stereo not shown) [Example 44, 2-(1-(4-amino-3-(4-(1-benzhydrylazetidin-3-yloxy)-3-fluorophenyl)-1H-pyrazolo[3,4-d]pyrimidin-1-yl)ethyl)-5-fluoro-3-(3-fluorophenyl)-4H-chromen-4-one]: the inhibition at 1 µM against PI3kα and against PI3kβ was 0 to 25% throughout. For the same compound, the inhibition at 0.3 µM against PI3kγ and against PI3kδ was 25 to 50% each time.

For the compound `CC(c1oc2cccc(F)c2c(=O)c1-c1cccc(F)c1)n1nc(-c2ccc(N3CCOCC3)c(Cl)c2)c2c(N)ncnc21` (racemic) [Example 126, (S)/(R)-2-(1-(4-amino-3-(3-chloro-4-morpholinophenyl)-1H-pyrazolo[3,4-d]pyrimidin-1-yl)ethyl)-5-fluoro-3-(3-fluorophenyl)-4H-chromen-4-one], the “% inhibition (PI3kα) 1 uM” value on PI3kα was “D (D=0 to 25%)”. Besides, the “% inhibition (PI3kβ) 1 uM” value at PI3kβ is listed as “C (C=>25 to 50%)”. On PI3kγ (100 nM (Examples 60-137), 0.1 µM), the “% inhibition (PI3kγ) 100 nM” value is “D (D=0 to 25%)”. Besides, the “% inhibition (PI3kδ) 100 nM” value at PI3kδ (100 nM (Examples 60-137)) is on record as “B (B=>50 to 75%)”.

Turning to `CC(C)Oc1ccc(-c2nn(C(C)c3oc4cccc(F)c4c(=O)c3-c3cn[nH]c3)c3ncnc(N)c23)cc1F` (stereo not shown) [Example 18, 2-(1-(4-amino-3-(3-fluoro-4-isopropoxyphenyl)-1H-pyrazolo[3,4-d]pyrimidin-1-yl)ethyl)-5-fluoro-3-(1H-pyrazol-4-yl)-4H-chromen-4-one], the inhibition at 1 µM against PI3kα and against PI3kβ was 0 to 25% in each case. Moreover, the figures for the inhibition at 0.3 µM at PI3kγ and at PI3kδ were 50 to 75% and 75 to 100%, respectively. This compound also registered an IC50 at PI3kδ of 50 to 100 nM.

On to `CC(c1oc2cccc(F)c2c(=O)c1-c1cccc(F)c1)n1nc(-c2ccc(OC(F)F)c(F)c2)c2c(N)ncnc21` (stereo not shown) [Example 17, 2-(1-(4-amino-3-(4-(difluoromethoxy)-3-fluorophenyl)-1H-pyrazolo[3,4-d]pyrimidin-1-yl)ethyl)-5-fluoro-3-(3-fluorophenyl)-4H-chromen-4-one], for which the inhibition at 1 µM on PI3kα was 0 to 25%; against PI3kβ it was 25 to 50%. The inhibition at 0.3 µM fell in the range of 25 to 50% on PI3kγ and 75 to 100% on PI3kδ.

For the compound `CC(c1oc2cccc(F)c2c(=O)c1-c1ccccc1)n1nc(-c2ccc(OC(F)F)c(F)c2)c2c(N)ncnc21` (racemic) [Example 102, (S)/(R)-2-(1-(4-amino-3-(4-(difluoromethoxy)-3-fluorophenyl)-1H-pyrazolo[3,4-d]pyrimidin-1-yl)ethyl)-5-fluoro-3-phenyl-4H-chromen-4-one], the “% inhibition (PI3kα) 1 uM” value at PI3kα is “C (C=>25 to 50%)”. In addition, the inhibition at 1 µM on PI3kβ lay within 50 to 75%. Further, the results for the inhibition at 0.1 µM against PI3kγ (100 nM (Examples 60-137)) and on PI3kδ (100 nM (Examples 60-137)) were 25 to 50% and 0 to 25%, respectively.

Regarding `CC(C)Oc1ccc(-c2nn(C(C)c3oc4cccc(F)c4c(=O)c3-c3ccccc3)c3ncnc(N)c23)cc1F` (racemic) [Example 100, (S)/(R)-2-(1-(4-amino-3-(3-fluoro-4-isopropoxyphenyl)-1H-pyrazolo[3,4-d]pyrimidin-1-yl)ethyl)-5-fluoro-3-phenyl-4H-chromen-4-one], on PI3kα, the “% inhibition (PI3kα) 1 uM” value is on record as “B (B=>50 to 75%)”. Further, the “% inhibition (PI3kβ) 1 uM” value at PI3kβ is reported as “B (B=>50 to 75%)”. The IC50 on PI3kγ lay in the range of 50 to 100 nM; against PI3kδ, 100 to 300 nM. Besides, the inhibition at 0.1 µM at PI3kγ (100 nM (Examples 60-137)) fell in the range of 50 to 75%; against PI3kδ (100 nM (Examples 60-137)), 25 to 50%.

As for `CCC(Nc1ncnc2[nH]cnc12)c1oc2cccc(F)c2c(=O)c1-c1ccccc1` (stereo not shown) [Example 65, 2-(1-(9H-purin-6-ylamino)propyl)-5-fluoro-3-phenyl-4H-chromen-4-one], the inhibition at 1 µM at PI3kα and at PI3kβ was 25 to 50% each time. In addition, the inhibition at 0.1 µM lay in the range of 50 to 75% at PI3kγ (100 nM (Examples 60-137)) and 0 to 25% against PI3kδ (100 nM (Examples 60-137)).

In the case of `CC(c1oc2cccc(F)c2c(=O)c1-c1cccc(F)c1)n1nc(N(C)C)c2c(N)ncnc21` (stereo not shown) [Example 38, 2-(1-(4-amino-3-(dimethylamino)-1H-pyrazolo[3,4-d]pyrimidin-1-yl)ethyl)-5-fluoro-3-(3-fluorophenyl)-4H-chromen-4-one], the inhibition at 1 µM against PI3kα and on PI3kβ was 25 to 50% each time. Besides, the figures for the inhibition at 0.3 µM on PI3kγ and against PI3kδ were 0 to 25% and 50 to 75%, respectively.

With `CC(c1oc2cccc(F)c2c(=O)c1-c1cccc(F)c1)n1nc(-c2cc3ccccc3s2)c2c(N)ncnc21` (stereo not shown) [Example 36, 2-(1-(4-amino-3-(benzo[b]thiophen-2-yl)-1H-pyrazolo[3,4-d]pyrimidin-1-yl)ethyl)-5-fluoro-3-(3-fluorophenyl)-4H-chromen-4-one], the inhibition at 1 µM fell in the range of 0 to 25% against PI3kα and 50 to 75% at PI3kβ. Also, the inhibition at 0.3 µM fell in the range of 75 to 100% against PI3kγ and 25 to 50% against PI3kδ.

As for `CC(c1oc2cccc(F)c2c(=O)c1-c1cccc(F)c1)n1nc(-c2ccc(N(C)C)c(F)c2)c2c(N)ncnc21` (stereo not shown) [Example 24, 2-(1-(4-amino-3-(4-(dimethylamino)-3-fluorophenyl)-1H-pyrazolo[3,4-d]pyrimidin-1-yl)ethyl)-5-fluoro-3-(3-fluorophenyl)-4H-chromen-4-one], the inhibition at 1 µM is 0 to 25% against PI3kα and 50 to 75% at PI3kβ. At PI3kγ, this compound had an inhibition at 0.3 µM of 25 to 50%.

Take `COc1cccc2oc(Cn3nc(-c4ccc(OC(C)C)c(F)c4)c4c(N)ncnc43)c(-c3cccc(F)c3)c(=O)c12` [Example 2, 2-((4-Amino-3-(3-fluoro-4-isopropoxyphenyl)-1H-pyrazolo[3,4-d]pyrimidin-1-yl)methyl)-3-(3-fluorophenyl)-5-methoxy-4H-chromen-4-one]: the inhibition at 1 µM on PI3kα and against PI3kβ was 0 to 25% throughout. On PI3kδ, this compound had an inhibition at 0.3 µM of 50 to 75%.

Compound `Cc1nc2cc(-c3nn(C(C)c4oc5cccc(F)c5c(=O)c4-c4cccc(F)c4)c4ncnc(N)c34)ccc2[nH]1` (stereo not shown) [Example 26, 2-(1-(4-amino-3-(2-methyl-1H-benzo[d]imidazol-5-yl)-1H-pyrazolo[3,4-d]pyrimidin-1-yl)ethyl)-5-fluoro-3-(3-fluorophenyl)-4H-chromen-4-one] came in with an inhibition at 1 µM against PI3kα of 0 to 25%. On PI3kβ, this compound returned an inhibition at 1 µM of 25 to 50%. On PI3kγ, this compound returned an IC50 of 50 to 100 nM and an inhibition at 0.3 µM of 75 to 100%.
